In patent publication US20050101611A1, “Oral formulation comprising an inhibitor compound of the ileal bile transport and an hmg co-a reductase inhibitor” (priority 2000, published 2005):

Target: T1, ileal bile acid transport system (IBAT) (Homo sapiens, UniProt Q12908)
T1 sequence (Q12908 1-348): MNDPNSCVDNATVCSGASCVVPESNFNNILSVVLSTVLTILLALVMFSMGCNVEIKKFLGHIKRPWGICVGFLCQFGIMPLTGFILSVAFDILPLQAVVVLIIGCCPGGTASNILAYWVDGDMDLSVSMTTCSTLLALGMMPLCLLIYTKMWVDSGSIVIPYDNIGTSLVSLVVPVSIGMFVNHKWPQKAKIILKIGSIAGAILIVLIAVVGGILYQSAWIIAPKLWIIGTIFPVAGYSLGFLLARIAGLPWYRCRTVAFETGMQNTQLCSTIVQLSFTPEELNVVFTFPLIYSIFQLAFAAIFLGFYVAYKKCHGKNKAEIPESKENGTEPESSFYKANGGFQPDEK
Experiment: inhibition of IBAT
Details: statement in background text; no method or data given

Question: For `COc1ccc([C@@H]2Sc3ccccc3N(CCN(C)C)C(=O)[C@@H]2OC(C)=O)cc1` [diltiazem], which “inhibition of IBAT” value is on record?
Answer: The value was “no activity”.
